# Patent publication US11427558B1, “Indazoles and azaindazoles as LRRK2 inhibitors” (ESCAPE Bio, Inc., priority 2019, dated 2022)
# Key:
# [1] = molecular target: Recombinant wild type LRRK2 protein (Homo sapiens (Human), UniProt Q5S007); assay: LRRK2 kinase activity, LanthaScreen TR-FRET assay (wild type); type: biochemical; settings: LRRKtide 400 nM, 25 μM ATP, 60 min; read-out: LRRK2 WT IC50
# Protocol: (§1) LRRK2 kinase activity was measured using a LanthaScreen™ Kinase Activity Assay from ThermoFisher Scientific. Recombinant wild type or G2019S-LRRK2 protein (Life Technologies, PR8604B or PV4881, respectively), was incubated with a fluorescein-labeled peptide substrate called LRRKtide that is based upon ezrin/radixin/moesin (ERM) (Life Technologies, PV4901) in the presence of ATP and serially diluted compound. […] Compound-dependent inhibition of the TR-FRET signal was used to generate a concentration-response curve for IC50 determination.
# (§2) After 60 min incubation at room temperature, the reaction was stopped by addition of 10 μL of 2× stop solution containing a final concentration of 2 nM anti-pERM antibody and 10 mM EDTA. […] The ratio of the 520 nm and 495 nm emission was used to analyze the data.
# [2] = molecular target: Recombinant G2019S-LRRK2 protein (Homo sapiens (Human), UniProt Q5S007, G2019S); assay: LRRK2 kinase activity, LanthaScreen TR-FRET assay (G2019S); type: biochemical; settings: LRRKtide 400 nM, 25 μM ATP, 60 min
# Protocol: as §1, §2
# Recombinant G2019S-LRRK2 protein, sequence (Q5S007 whole entry G2019S): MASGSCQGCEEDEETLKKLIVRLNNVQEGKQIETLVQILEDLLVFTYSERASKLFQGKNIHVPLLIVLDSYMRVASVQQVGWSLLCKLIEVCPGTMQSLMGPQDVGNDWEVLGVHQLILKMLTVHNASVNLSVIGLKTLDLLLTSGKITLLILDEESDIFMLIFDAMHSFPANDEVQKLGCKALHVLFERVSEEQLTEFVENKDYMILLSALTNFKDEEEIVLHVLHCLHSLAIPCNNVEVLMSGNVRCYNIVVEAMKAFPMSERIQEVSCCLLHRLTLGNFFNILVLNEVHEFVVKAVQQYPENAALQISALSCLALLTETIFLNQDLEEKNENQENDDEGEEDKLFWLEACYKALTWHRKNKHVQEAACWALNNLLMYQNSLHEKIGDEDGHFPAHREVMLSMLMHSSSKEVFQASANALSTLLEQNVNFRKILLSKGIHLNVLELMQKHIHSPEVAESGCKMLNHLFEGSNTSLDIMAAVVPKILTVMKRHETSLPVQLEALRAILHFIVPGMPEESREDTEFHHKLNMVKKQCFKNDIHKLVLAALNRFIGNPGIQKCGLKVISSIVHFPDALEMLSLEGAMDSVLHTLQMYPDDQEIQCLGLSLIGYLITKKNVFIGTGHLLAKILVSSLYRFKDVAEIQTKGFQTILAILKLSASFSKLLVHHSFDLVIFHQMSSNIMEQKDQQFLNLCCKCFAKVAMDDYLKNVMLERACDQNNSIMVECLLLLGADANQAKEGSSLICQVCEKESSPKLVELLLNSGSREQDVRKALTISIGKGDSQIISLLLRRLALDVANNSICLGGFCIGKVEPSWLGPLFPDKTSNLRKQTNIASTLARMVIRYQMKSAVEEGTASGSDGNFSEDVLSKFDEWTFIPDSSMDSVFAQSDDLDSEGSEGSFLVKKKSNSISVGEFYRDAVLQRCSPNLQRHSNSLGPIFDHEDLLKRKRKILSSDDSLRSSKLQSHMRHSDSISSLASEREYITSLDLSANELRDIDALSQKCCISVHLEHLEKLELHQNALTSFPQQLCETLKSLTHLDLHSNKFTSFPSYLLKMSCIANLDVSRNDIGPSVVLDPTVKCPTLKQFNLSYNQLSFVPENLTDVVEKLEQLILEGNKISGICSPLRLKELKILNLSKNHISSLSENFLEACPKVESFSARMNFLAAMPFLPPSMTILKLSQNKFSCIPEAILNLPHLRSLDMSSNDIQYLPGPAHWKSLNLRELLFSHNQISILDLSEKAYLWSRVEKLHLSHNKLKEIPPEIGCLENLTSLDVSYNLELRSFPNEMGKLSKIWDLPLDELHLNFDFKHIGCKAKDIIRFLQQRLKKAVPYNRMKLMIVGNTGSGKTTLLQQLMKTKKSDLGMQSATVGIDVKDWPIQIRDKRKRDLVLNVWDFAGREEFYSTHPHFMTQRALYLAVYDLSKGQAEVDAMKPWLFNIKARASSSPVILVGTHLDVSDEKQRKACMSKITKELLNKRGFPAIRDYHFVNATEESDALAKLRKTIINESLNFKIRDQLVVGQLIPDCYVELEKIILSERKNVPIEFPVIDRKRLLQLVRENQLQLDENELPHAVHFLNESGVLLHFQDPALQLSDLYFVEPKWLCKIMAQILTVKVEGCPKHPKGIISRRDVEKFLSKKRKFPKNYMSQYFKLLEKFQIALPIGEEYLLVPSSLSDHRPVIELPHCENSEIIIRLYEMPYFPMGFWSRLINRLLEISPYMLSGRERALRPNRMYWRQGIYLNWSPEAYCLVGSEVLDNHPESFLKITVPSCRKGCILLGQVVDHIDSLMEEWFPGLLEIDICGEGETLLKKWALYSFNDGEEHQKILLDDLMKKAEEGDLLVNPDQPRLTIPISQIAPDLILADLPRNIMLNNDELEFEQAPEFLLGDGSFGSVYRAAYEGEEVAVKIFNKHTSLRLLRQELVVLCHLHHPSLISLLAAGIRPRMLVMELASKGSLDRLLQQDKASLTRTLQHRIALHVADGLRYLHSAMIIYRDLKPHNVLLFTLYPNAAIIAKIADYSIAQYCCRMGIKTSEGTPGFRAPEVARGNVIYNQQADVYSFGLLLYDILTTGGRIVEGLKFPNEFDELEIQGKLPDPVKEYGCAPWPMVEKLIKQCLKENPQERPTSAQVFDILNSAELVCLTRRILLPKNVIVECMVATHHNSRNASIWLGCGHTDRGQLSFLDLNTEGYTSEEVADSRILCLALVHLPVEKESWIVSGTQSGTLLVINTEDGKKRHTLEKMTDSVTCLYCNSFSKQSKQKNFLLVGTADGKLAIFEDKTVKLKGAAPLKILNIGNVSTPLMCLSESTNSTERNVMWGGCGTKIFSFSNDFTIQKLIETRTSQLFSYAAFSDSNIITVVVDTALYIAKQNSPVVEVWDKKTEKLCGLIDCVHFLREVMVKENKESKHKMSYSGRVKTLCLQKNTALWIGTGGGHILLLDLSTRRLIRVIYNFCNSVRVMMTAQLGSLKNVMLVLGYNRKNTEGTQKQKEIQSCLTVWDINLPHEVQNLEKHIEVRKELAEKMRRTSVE
# Recombinant wild type LRRK2 protein, sequence (Q5S007 whole entry): as the sequence (Q5S007 whole entry G2019S) above, with S2019G counted along it
Structure (SMILES),IC50 [1],IC50 [2]
"Cc1cc(C#N)cnc1C(=O)Nc1ccc2[nH]nc(-c3cncc(N4CCOCC4)c3)c2c1 [Example 37, 5-Cyano-3-methyl-N-(3-(5-morpholinopyridin-3-yl)-1H-indazol-5-yl)picolinamide]",100 to 1000 nM,< 100 nM
"Cc1cc(C#N)cnc1C(=O)Nc1ccc2[nH]nc(-c3ccc(OC(C)C)nc3)c2c1 [Example 38, 5-Cyano-N-(3-(6-isopropoxypyridin-3-yl)-1H-indazol-5-yl)-3-methylpicolinamide]",100 to 1000 nM,< 100 nM
"N#Cc1cnc(C(=O)Nc2ccc3[nH]nc(-c4ccoc4)c3c2)cc1O [Example 39, 5-Cyano-N-(3-(furan-3-yl)-1H-indazol-5-yl)-4-hydroxypicolinamide]",1000 to 10000 nM,1000 to 10000 nM
"Cc1cc(C#N)cnc1C(=O)Nc1ccc2[nH]nc(-c3ccccc3)c2c1 [Example 40, 5-Cyano-3-methyl-N-(3-phenyl-1H-indazol-5-yl)picolinamide]",100 to 1000 nM,< 100 nM
"Cc1cc(C#N)cnc1C(=O)Nc1ccc2[nH]nc(-c3cccc(C#N)c3)c2c1 [Example 41, 5-Cyano-N-(3-(3-cyanophenyl)-1H-indazol-5-yl)-3-methylpicolinamide]",100 to 1000 nM,< 100 nM
"Cc1cc(C#N)cnc1C(=O)Nc1ccc2[nH]nc(-c3cncc(C#N)c3)c2c1 [Example 42, 5-Cyano-N-(3-(5-cyanopyridin-3-yl)-1H-indazol-5-yl)-3-methylpicolinamide]",100 to 1000 nM,< 100 nM
"Cc1nc(C#N)n(C)c1C(=O)Nc1ccc2[nH]nc(-c3ccccc3)c2c1 [Example 43, 2-Cyano-1,4-dimethyl-N-(3-phenyl-1H-indazol-5-yl)-1H-imidazole-5-carboxamide]",100 to 1000 nM,< 100 nM
"Cc1cc(C#N)c(C)nc1C(=O)Nc1ccc2[nH]nc(-c3ccoc3)c2c1 [Example 44, 5-Cyano-N-(3-(furan-3-yl)-1H-indazol-5-yl)-3,6-dimethylpicolinamide]",< 100 nM,< 100 nM
"Cc1cc(C#N)cnc1C(=O)Nc1ccc2[nH]nc(-c3ccc(N4CCN(C)CC4)cc3)c2c1 [Example 45, 5-Cyano-3-methyl-N-(3-(4-(4-methylpiperazin-1-yl)phenyl)-1H-indazol-5-yl)picolinamide]",< 100 nM,< 100 nM
"COc1cc(F)cc(-c2n[nH]c3ccc(NC(=O)c4ncc(C#N)cc4C)cc23)c1 [Example 46, 5-Cyano-N-(3-(3-fluoro-5-methoxyphenyl)-1H-indazol-5-yl)-3-methylpicolinamide]",100 to 1000 nM,< 100 nM
"COc1ccc(-c2n[nH]c3ccc(NC(=O)c4ncc(C#N)cc4C)cc23)cc1 [Example 47, 5-Cyano-N-(3-(4-methoxyphenyl)-1H-indazol-5-yl)-3-methylpicolinamide]",100 to 1000 nM,< 100 nM
"COc1cc(-c2n[nH]c3ccc(NC(=O)c4ncc(C#N)cc4C)cc23)ccn1 [Example 48, 5-Cyano-N-(3-(2-methoxypyridin-4-yl)-1H-indazol-5-yl)-3-methylpicolinamide]",100 to 1000 nM,< 100 nM
"Cc1cc(C#N)ncc1C(=O)Nc1ccc2[nH]nc(-c3ccoc3)c2c1 [Example 49, 6-Cyano-N-(3-(furan-3-yl)-1H-indazol-5-yl)-4-methylnicotinamide]",100 to 1000 nM,< 100 nM
"Cc1cc(C#N)cnc1C(=O)Nc1ccc2[nH]nc(-c3cccnc3)c2c1 [Example 50, 5-Cyano-3-methyl-N-(3-(pyridin-3-yl)-1H-indazol-5-yl)picolinamide]",100 to 1000 nM,< 100 nM
"Cc1cc(-c2n[nH]c3ccc(NC(=O)c4ncc(C#N)cc4C)cc23)ccc1F [Example 51, 5-Cyano-N-(3-(4-fluoro-3-methylphenyl)-1H-indazol-5-yl)-3-methylpicolinamide]",100 to 1000 nM,< 100 nM
"COc1ccc(-c2n[nH]c3ccc(NC(=O)c4ncc(C#N)cc4C)cc23)cn1 [Example 52, 5-Cyano-N-(3-(6-methoxypyridin-3-yl)-1H-indazol-5-yl)-3-methylpicolinamide]",100 to 1000 nM,< 100 nM
"COc1cccc(-c2n[nH]c3ccc(NC(=O)c4ncc(C#N)cc4C)cc23)c1 [Example 53, 5-Cyano-N-(3-(3-methoxyphenyl)-1H-indazol-5-yl)-3-methylpicolinamide]",100 to 1000 nM,< 100 nM
"Cc1cc(C#N)cnc1C(=O)Nc1ccc2[nH]nc(-c3cccc(OC(F)(F)F)c3)c2c1 [Example 54, 5-Cyano-3-methyl-N-(3-(3-(trifluoromethoxy)phenyl)-1H-indazol-5-yl)picolinamide]",1000 to 10000 nM,100 to 1000 nM
"Cc1ccc(-c2n[nH]c3ccc(NC(=O)c4ncc(C#N)cc4C)cc23)cn1 [Example 55, 5-Cyano-3-methyl-N-(3-(6-methylpyridin-3-yl)-1H-indazol-5-yl)picolinamide]",100 to 1000 nM,< 100 nM

Structure (SMILES),IC50 [1],IC50 [2]
"Cc1ccc(-c2n[nH]c3ccc(NC(=O)c4ncc(C#N)cc4C)cc23)cc1 [Example 56, 5-Cyano-3-methyl-N-(3-(p-tolyl)-1H-indazol-5-yl)picolinamide]",100 to 1000 nM,< 100 nM
"Cc1cc(C#N)cnc1C(=O)Nc1ccc2[nH]nc(-c3cnn(C)c3)c2c1 [Example 57, 5-Cyano-3-methyl-N-(3-(1-methyl-1H-pyrazol-4-yl)-1H-indazol-5-yl)picolinamide]",< 100 nM,< 100 nM
"Cc1cccc(-c2n[nH]c3ccc(NC(=O)c4ncc(C#N)cc4C)cc23)c1 [Example 58, 5-Cyano-3-methyl-N-(3-(m-tolyl)-1H-indazol-5-yl)picolinamide]",100 to 1000 nM,< 100 nM
"Cc1cc(C#N)cnc1C(=O)Nc1ccc2[nH]nc(-c3cccc(C(F)(F)F)c3)c2c1 [Example 59, 5-Cyano-3-methyl-N-(3-(3-(trifluoromethyl)phenyl)-1H-indazol-5-yl)picolinamide]",100 to 1000 nM,< 100 nM
"Cc1cc(C#N)cnc1C(=O)Nc1ccc2[nH]nc(-c3ccc(C(F)(F)F)nc3)c2c1 [Example 60, 5-Cyano-3-methyl-N-(3-(6-(trifluoromethyl)pyridin-3-yl)-1H-indazol-5-yl)picolinamide]",1000 to 10000 nM,100 to 1000 nM
"Cc1cc(F)cc(-c2n[nH]c3ccc(NC(=O)c4ncc(C#N)cc4C)cc23)c1 [Example 61, 5-Cyano-N-(3-(3-fluoro-5-methylphenyl)-1H-indazol-5-yl)-3-methylpicolinamide]",100 to 1000 nM,< 100 nM
"Cc1cc(C#N)cnc1C(=O)Nc1ccc2[nH]nc(-c3cccc(C4CC4)c3)c2c1 [Example 62, 5-cyano-N-(3-(3-cyclopropylphenyl)-1H-indazol-5-yl)-3-methylpicolinamide]",100 to 1000 nM,< 100 nM
"Cc1ccc(-c2n[nH]c3ccc(NC(=O)c4ncc(C#N)cc4C)cc23)cc1F [Example 63, 5-Cyano-N-(3-(3-fluoro-4-methylphenyl)-1H-indazol-5-yl)-3-methylpicolinamide]",100 to 1000 nM,< 100 nM
"N#Cc1cnc(C(=O)Nc2ccc3[nH]nc(-c4ccoc4)c3c2)c(C(F)F)c1 [Example 64, 5-Cyano-3-(difluoromethyl)-N-(3-(furan-3-yl)-1H-indazol-5-yl)picolinamide]",100 to 1000 nM,< 100 nM
"N#Cc1cnc(C(=O)Nc2ccc3[nH]nc(-c4ccoc4)c3c2)s1 [Example 65, 5-Cyano-N-(3-(furan-3-yl)-1H-indazol-5-yl)thiazole-2-carboxamide]",< 100 nM,< 100 nM
"N#Cc1cnc(C(=O)Nc2ccc3[nH]nc(-c4ccoc4)c3c2)cc1Cl [Example 66, 4-Chloro-5-cyano-N-(3-(furan-3-yl)-1H-indazol-5-yl)picolinamide]",100 to 1000 nM,100 to 1000 nM
"Cc1c(C#N)cnc(C(=O)Nc2ccc3[nH]nc(-c4ccoc4)c3c2)c1C [Example 67, 5-Cyano-N-(3-(furan-3-yl)-1H-indazol-5-yl)-3,4-dimethylpicolinamide]",< 100 nM,< 100 nM
"COc1cncc(-c2n[nH]c3ccc(NC(=O)c4ncc(C#N)cc4C)cc23)c1 [Example 68, 5-Cyano-N-(3-(5-methoxypyridin-3-yl)-1H-indazol-5-yl)-3-methylpicolinamide]",100 to 1000 nM,< 100 nM
"COc1cc(C#N)cnc1C(=O)Nc1ccc2[nH]nc(-c3ccoc3)c2c1 [Example 69, 5-Cyano-N-(3-(furan-3-yl)-1H-indazol-5-yl)-3-methoxypicolinamide]",100 to 1000 nM,< 100 nM
"Cc1cc(C#N)cnc1C(=O)Nc1ccc2[nH]nc(-c3ccc(N4CCOCC4)cc3)c2c1 [Example 70, 5-Cyano-3-methyl-N-(3-(4-morpholinophenyl)-1H-indazol-5-yl)picolinamide]",100 to 1000 nM,< 100 nM
"Cc1cc(C#N)cnc1C(=O)Nc1ccc2[nH]nc(-c3ccc4ocnc4c3)c2c1 [Example 71, N-(3-(Benzo[d]oxazol-5-yl)-1H-indazol-5-yl)-5-cyano-3-methylpicolinamide]",100 to 1000 nM,< 100 nM
"COc1c(C#N)cccc1C(=O)Nc1ccc2[nH]nc(-c3ccoc3)c2c1 [Example 72, 3-Cyano-N-(3-(furan-3-yl)-1H-indazol-5-yl)-2-methoxybenzamide]",< 100 nM,< 100 nM
"Cc1cc(C#N)cnc1C(=O)Nc1ccc2[nH]nc(-c3ccsc3)c2c1 [Example 73, 5-Cyano-3-methyl-N-(3-(thiophen-3-yl)-1H-indazol-5-yl)picolinamide]",100 to 1000 nM,< 100 nM
